18 molecules from patent US11236078B2, “Heterocyclic inhibitors of the sodium channel” (priority 2014, dated 2022) can be followed below.

Common to all, as to format: cell-based
Assay [1] deals with T1, human Nav1.7 (hNav1.7) (Homo sapiens, UniProt Q15858).
T1 construct: expressed in transfected cells
In words: hNav1.7 slow inactivation block, manual patchclamp. The conditions noted are these: HEK 293F cells stably expressing hNav1.7, slow inactivation induced in approximately 50% of channels. The text has this: (§1) The generation of HEK 293F cell lines stably expressing human Nav1.7 (h Nav1.7), human Nav1.5 (hNav1.5) and rat Nav1.2 (r Nav1.2) was achieved by subcloning SCN9A, SCN5A, and SCN2A genes into inducible expression vectors followed by transfection into target cells using standard techniques. In the case of h Nav1.7, an expression vector encoding the human Navβ1 auxiliary subunit gene, SCN1B, was co-transfected with the expression vector bearing the SCN9A gene. Clones were selected using appropriate selection agents (0.3 mg/mL Zeocin and 0.8 mg/mL Geneticin) and maintained in Dulbecco's Modified Eagle medium, 10% fetal bovine serum, 1% non-essential amino acids to ˜80% confluence at 37° C. in a humidified incubator with 95% atmosphere and 5% CO2.
(§2) On the day of each experiment, cells that were grown to 80% confluence in a T75 flask were harvested for use on PatchXpress (Molecular Devices, CA, USA). Following a recovery period at 37° C. in a humidified incubator with 95% atmosphere and 5% CO2 in Dulbecco's Modified Eagle Medium, the media was replaced with an external recording solution containing (in mM): 90 TEACl, 50 NaCl, 1.8 CaCl2, 1 MgCl2, 10 HEPES, 10 glucose, adjusted to pH 7.4 with TEAOH and 300 mOsm with sucrose. The internal recording solution contained (in mM): 129 CsF, 2 MgCl2, 11 EGTA, 10 HEPES, 6 NaCl, 3 Na2ATP adjusted to pH 7.2 with CsOH and 280 mOsm with sucrose. The automated liquid handling facility of PatchXpress dispensed cells and added compound. Modulation of Nav1.7 channels by compounds was assessed by promoting the channels into the inactivated state using a conditioning voltage pulse of variable amplitude, followed by a brief hyperpolarizing pulse with a subsequent depolarized voltage step to measure the current amplitude in the presence and absence of compound.
(§3) In some cases, the potency of compounds was measured using either the Patchliner automated patch clamp platform (Nanion) or manual patch clamp techniques. Both approaches allowed the compounds to be characterized based upon the ability of a compound to modulate use- and/or state-dependence across human Nav1.7 (hNav1.7), human Nav1.5 (hNav1.5) and rat Nav1.2 (rNav1.2). The potency data is tabulated in Table 2 and is represented by six data fields. Three of the six fields represent potency data measured with the Patchliner automated platform under varying use- and state-dependent electrophysiology protocols similar to the PatchXpress protocols detailed above. For example, the second data column describes the potency of compounds in their ability to block 50% of Nav1.7 channels when the channel is repetitively activated by depolarizing voltage potentials to induce slow inactivation in approximately 50% of channels (Table 2: h Nav1.7: IC50 Slow Inactivation Block, Automated Patchclamp). The next three data fields describe the data generated from manual patchclamp electrophysiology measurements using similar methods to those employed for automated patchclamp studies.

For a further assay, the target named is T2, human Nav1.5 (hNav1.5) (Homo sapiens, UniProt Q14524).
T2 construct: expressed in transfected cells
In words: hNav1.5 slow inactivation block, manual patchclamp. The conditions noted are these: HEK 293F cells stably expressing hNav1.5.
From the text: as §1, with “CO2. […]” for “CO2.”
as §2, §3
On the technique in general: Patch clamp records ionic current or voltage across a cell membrane.

Assay [2] concerns the target T3, rat Nav1.2 (rNav1.2) (Rattus norvegicus, UniProt P04775).
T3 construct: expressed in transfected cells
In words: rNav1.2 slow inactivation block, manual patchclamp. The conditions noted are these: HEK 293F cells stably expressing rNav1.2.
From the text: as §1, §2, §3

The target of assay [3] is T1, human Nav1.7 (hNav1.7). Kind of assay: hNav1.7 slow inactivation block, automated patchclamp. To be noted: HEK 293F cells stably expressing hNav1.7, slow inactivation induced in approximately 50% of channels.
From the text: as §1, §2, §3

The target of assay [4] is T3, rat Nav1.2 (rNav1.2). In words: rNav1.2 slow inactivation block, automated patchclamp. The conditions noted are these: HEK 293F cells stably expressing rNav1.2.
From the text: as §1, §2, §3

T3 sequence (P04775 whole entry): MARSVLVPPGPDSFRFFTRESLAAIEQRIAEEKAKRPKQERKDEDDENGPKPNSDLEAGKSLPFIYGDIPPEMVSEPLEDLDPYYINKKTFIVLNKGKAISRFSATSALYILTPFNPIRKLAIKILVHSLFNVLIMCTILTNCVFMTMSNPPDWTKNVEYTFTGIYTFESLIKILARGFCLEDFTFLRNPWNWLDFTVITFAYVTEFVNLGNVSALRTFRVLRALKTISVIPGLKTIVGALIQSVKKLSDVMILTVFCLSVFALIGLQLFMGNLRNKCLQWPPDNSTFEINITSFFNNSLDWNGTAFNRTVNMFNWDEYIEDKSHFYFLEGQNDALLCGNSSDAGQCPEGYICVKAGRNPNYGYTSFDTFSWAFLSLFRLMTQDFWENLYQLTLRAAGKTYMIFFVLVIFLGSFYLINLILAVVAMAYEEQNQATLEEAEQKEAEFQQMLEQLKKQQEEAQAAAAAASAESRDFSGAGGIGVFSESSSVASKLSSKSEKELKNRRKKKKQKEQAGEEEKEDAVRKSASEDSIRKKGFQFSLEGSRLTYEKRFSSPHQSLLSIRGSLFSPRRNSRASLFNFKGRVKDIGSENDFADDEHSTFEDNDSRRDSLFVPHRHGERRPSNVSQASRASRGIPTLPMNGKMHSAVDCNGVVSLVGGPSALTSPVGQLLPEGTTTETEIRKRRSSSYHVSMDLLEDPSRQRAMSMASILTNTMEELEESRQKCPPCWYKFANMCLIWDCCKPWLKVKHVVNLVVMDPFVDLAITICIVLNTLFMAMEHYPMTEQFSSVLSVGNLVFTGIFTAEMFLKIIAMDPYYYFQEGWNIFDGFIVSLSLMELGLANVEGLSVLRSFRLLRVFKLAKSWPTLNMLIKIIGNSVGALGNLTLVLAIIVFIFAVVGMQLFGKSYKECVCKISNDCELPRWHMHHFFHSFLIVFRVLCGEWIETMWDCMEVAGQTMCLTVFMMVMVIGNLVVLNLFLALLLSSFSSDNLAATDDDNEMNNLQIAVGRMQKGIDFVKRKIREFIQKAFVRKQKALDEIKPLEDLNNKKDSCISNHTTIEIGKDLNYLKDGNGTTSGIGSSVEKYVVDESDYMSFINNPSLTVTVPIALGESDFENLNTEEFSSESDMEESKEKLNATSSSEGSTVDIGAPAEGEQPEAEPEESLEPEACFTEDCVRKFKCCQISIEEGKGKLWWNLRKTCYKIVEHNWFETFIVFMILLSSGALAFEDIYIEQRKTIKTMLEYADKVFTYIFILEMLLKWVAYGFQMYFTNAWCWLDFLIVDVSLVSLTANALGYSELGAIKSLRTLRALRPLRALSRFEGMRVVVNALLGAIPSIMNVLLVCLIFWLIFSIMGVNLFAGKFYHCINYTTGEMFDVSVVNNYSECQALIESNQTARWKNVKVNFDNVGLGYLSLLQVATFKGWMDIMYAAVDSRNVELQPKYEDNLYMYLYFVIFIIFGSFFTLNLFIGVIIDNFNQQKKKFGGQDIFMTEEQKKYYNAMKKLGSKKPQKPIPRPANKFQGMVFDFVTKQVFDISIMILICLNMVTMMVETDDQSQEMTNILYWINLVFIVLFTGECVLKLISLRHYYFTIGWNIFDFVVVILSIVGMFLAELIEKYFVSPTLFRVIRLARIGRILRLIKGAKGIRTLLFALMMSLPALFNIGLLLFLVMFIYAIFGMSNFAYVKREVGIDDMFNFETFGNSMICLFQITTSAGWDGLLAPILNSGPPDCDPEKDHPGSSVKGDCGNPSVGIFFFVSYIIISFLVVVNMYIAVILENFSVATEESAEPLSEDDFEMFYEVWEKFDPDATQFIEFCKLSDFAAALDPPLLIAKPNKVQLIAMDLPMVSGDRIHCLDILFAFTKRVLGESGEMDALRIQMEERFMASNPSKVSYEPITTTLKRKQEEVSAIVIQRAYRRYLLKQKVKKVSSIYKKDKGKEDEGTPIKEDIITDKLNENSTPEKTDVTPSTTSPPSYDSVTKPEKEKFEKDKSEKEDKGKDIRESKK
T1 sequence (Q15858 whole entry): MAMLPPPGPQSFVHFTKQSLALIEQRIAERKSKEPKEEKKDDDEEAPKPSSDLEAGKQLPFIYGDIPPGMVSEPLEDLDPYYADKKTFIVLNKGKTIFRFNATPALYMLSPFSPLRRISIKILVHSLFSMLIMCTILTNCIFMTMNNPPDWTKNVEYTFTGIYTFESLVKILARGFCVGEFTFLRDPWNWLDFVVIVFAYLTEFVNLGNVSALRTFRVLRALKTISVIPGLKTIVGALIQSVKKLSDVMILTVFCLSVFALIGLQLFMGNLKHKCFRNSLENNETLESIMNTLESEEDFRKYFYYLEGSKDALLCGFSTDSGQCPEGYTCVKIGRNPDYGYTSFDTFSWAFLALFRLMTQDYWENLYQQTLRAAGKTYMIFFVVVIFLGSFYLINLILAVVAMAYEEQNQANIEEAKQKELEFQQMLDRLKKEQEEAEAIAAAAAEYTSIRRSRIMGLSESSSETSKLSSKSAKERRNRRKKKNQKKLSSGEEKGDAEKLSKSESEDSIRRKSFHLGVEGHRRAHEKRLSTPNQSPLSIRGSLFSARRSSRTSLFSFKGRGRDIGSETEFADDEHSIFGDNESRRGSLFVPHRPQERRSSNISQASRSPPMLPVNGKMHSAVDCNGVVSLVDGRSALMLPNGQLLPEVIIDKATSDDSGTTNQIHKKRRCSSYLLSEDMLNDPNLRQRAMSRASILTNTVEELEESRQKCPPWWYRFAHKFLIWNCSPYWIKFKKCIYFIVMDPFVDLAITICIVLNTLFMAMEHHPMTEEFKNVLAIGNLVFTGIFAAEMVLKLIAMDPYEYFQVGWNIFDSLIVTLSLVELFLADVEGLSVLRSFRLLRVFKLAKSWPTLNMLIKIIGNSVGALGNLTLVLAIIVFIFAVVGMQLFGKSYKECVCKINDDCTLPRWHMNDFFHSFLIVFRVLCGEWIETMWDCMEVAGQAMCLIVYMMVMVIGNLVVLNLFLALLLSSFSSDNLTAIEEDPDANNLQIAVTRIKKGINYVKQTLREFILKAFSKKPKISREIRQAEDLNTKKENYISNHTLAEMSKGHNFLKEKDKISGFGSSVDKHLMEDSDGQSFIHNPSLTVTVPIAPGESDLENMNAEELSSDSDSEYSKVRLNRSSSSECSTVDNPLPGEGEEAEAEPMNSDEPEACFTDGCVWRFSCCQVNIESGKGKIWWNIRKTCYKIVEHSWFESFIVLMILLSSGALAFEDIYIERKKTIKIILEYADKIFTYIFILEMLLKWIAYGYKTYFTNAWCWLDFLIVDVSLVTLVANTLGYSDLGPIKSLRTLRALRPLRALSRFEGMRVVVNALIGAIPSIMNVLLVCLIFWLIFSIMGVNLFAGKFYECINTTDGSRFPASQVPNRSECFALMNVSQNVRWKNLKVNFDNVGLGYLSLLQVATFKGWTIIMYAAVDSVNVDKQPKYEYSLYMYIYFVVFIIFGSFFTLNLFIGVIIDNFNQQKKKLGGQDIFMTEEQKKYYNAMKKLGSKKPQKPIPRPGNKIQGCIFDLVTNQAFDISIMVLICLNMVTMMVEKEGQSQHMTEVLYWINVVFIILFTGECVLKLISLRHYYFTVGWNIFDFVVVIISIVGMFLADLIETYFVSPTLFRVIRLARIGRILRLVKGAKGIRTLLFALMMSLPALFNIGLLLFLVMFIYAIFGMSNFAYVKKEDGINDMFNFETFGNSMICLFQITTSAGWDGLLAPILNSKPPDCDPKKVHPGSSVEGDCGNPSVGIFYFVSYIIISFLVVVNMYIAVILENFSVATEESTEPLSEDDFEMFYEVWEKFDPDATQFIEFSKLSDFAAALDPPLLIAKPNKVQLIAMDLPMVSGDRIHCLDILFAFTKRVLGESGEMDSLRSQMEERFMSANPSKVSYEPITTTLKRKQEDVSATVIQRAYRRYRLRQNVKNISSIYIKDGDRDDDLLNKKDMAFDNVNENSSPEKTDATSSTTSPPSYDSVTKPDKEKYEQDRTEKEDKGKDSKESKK
T1 sequence (Q07699 19-218 partner): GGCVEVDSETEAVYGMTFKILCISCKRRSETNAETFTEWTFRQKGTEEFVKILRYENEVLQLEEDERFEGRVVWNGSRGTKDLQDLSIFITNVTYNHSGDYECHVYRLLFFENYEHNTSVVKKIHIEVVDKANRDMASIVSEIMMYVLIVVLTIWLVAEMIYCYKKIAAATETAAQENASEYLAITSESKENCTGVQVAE

`O=C(NCc1cc(F)c(Oc2cc(Br)cc(C(F)(F)F)c2)cc1F)c1ncns1` [Compound 1, N-(4-(3-bromo-5-(trifluoromethyl)phenoxy)-2,5-difluorobenzyl)-1,2,4-thiadiazole-5-carboxamide]: the figures for the IC50 on human Nav1.7 (hNav1.7) [1] and against human Nav1.5 (hNav1.5) were 294 nM and under 1000 nM, respectively.

With `CN(c1ncns1)S(=O)(=O)c1cc(F)c(Oc2cc(Br)cc(C(F)(F)F)c2)cc1F` [Compound 2, 4-(3-bromo-5-(trifluoromethyl)phenoxy)-2,5-difluoro-N-methyl-N-(1,2,4-thiadiazol-5-yl)benzenesulfonamide], the IC50 was 484 nM at human Nav1.7 (hNav1.7) [1] and over 3200 nM on human Nav1.5 (hNav1.5).

With `O=C(NCc1cc(F)c(Oc2cc(C(F)(F)F)cc(C(F)(F)F)c2)cc1F)c1nncs1` [Compound 19, N-({4-[3,5-bis(trifluoromethyl)phenoxy]-2,5-difluorophenyl}methyl)-1,3,4-thiadiazole-2-carboxamide], the 50% inhibitory concentration (IC50) at human Nav1.7 (hNav1.7) [1] is 1380 nM; on rat Nav1.2 (rNav1.2) [2], about 1250 nM; at human Nav1.7 (hNav1.7) [3], about 10200 nM; against rat Nav1.2 (rNav1.2) [4] it was 5660 nM.

For the molecule `CS(=O)(=O)NCc1cc(F)c(Oc2cc(C(F)(F)F)cc(C(F)(F)F)c2)cc1F` [Compound 20, N-({4-[3,5-bis(trifluoromethyl)phenoxy]-2,5-difluorophenyl}methyl)methane-sulfonamide], the half-inhibitory concentration (IC50) against human Nav1.7 (hNav1.7) [1] is about 1260 nM; on rat Nav1.2 (rNav1.2) [2], about 1320 nM; against human Nav1.7 (hNav1.7) [3], 5780 nM; on rat Nav1.2 (rNav1.2) [4], 4260 nM.

As to `O=C(Cc1cccc(-c2cc(C(F)(F)F)cc(C(F)(F)F)c2)c1)Nc1ncns1` [Compound 21, 2-{3-[3,5-bis(trifluoromethyl)phenyl]phenyl}-N-(1,2,4-thiadiazol-5-yl)acetamide], the 50% inhibitory concentration (IC50) was about 383 nM at human Nav1.7 (hNav1.7) [1], about 389 nM against rat Nav1.2 (rNav1.2) [2] and 550 nM at human Nav1.5 (hNav1.5).

On to `O=C(O)c1cc(Oc2cc(F)c(S(=O)(=O)Nc3ncns3)cc2F)cc(C(F)(F)F)c1` [Compound 23, 3-{2,5-difluoro-4-[(1,2,4-thiadiazol-5-yl)sulfamoyl]phenoxy}-5-(trifluoromethyl)benzoic], for which the IC50 against human Nav1.7 (hNav1.7) [1] was over 10000 nM; against rat Nav1.2 (rNav1.2) [2], over 10000 nM; against human Nav1.7 (hNav1.7) [3], over 32000 nM; against rat Nav1.2 (rNav1.2) [4], over 32000 nM.

Consider `NC(=O)c1cc(Oc2cc(F)c(S(=O)(=O)Nc3ncns3)cc2F)cc(C(F)(F)F)c1` [Compound 24, 3-{2,5-difluoro-4-[(1,2,4-thiadiazol-5-yl)sulfamoyl]phenoxy}-5-(trifluoromethyl)benzamide], for which the IC50 against human Nav1.7 (hNav1.7) [1] was 3890 nM; against rat Nav1.2 (rNav1.2) [2], over 10000 nM; against human Nav1.7 (hNav1.7) [3], 23600 nM; against rat Nav1.2 (rNav1.2) [4] it was over 32000 nM.

With `CCOC(=O)c1cc(Oc2cc(F)c(S(=O)(=O)Nc3ncns3)cc2F)cc(C(F)(F)F)c1` [Compound 26, ethyl 3-{2,5-difluoro-4-[(1,2,4-thiadiazol-5-yl)sulfamoyl]phenoxy}-5-(trifluoromethyl)benzoate], the IC50 is 2130 nM at human Nav1.7 (hNav1.7) [1], over 10000 nM against rat Nav1.2 (rNav1.2) [2], about 37200 nM against human Nav1.7 (hNav1.7) [3] and over 32000 nM at rat Nav1.2 (rNav1.2) [4].

On to `N#Cc1cc(Oc2cc(F)c(S(=O)(=O)Nc3ncns3)cc2F)cc(C(F)(F)F)c1` [Compound 27, 4-[3-cyano-5-(trifluoromethyl)phenoxy]-2,5-difluoro-N-(1,2,4-thiadiazol-5-yl)benzene-1-sulfonamide], for which the 50% inhibitory concentration (IC50) at human Nav1.7 (hNav1.7) [1] is 2170 nM; against rat Nav1.2 (rNav1.2) [2] it was about 32000 nM; against human Nav1.7 (hNav1.7) [3], 18000 nM; on rat Nav1.2 (rNav1.2) [4] it was about 32000 nM.

For `O=S(=O)(Nc1ncns1)c1cc(F)c(Oc2cc(F)cc(F)c2)cc1F` [Compound 28, 4-(3,5-difluorophenoxy)-2,5-difluoro-N-(1,2,4-thiadiazol-5-yl)benzene-1-sulfonamide], the IC50 against human Nav1.7 (hNav1.7) [1] is about 3960 nM; at rat Nav1.2 (rNav1.2) [2], over 10000 nM; against human Nav1.7 (hNav1.7) [3], about 37900 nM; against rat Nav1.2 (rNav1.2) [4], over 32000 nM.

On to `O=S(=O)(Nc1cccnn1)c1cc(F)c(Oc2cc(C(F)(F)F)cc(C(F)(F)F)c2)cc1F` [Compound 30, 4-[3,5-bis(trifluoromethyl)phenoxy]-2,5-difluoro-N-(pyridazin-3-yl)benzene-1-sulfonamide], for which the half-inhibitory concentration (IC50) on human Nav1.7 (hNav1.7) [1] is 4840 nM; against rat Nav1.2 (rNav1.2) [2], 11400 nM; at human Nav1.7 (hNav1.7) [3], about 36000 nM; against rat Nav1.2 (rNav1.2) [4] it was about 25200 nM.

Regarding `O=S(=O)(Nc1ncns1)c1cc(F)c(Oc2cc(F)cc(C(F)(F)F)c2)cc1F` [Compound 32, 2,5-difluoro-4-(3-fluoro-5-(trifluoromethyl)phenoxy)-N-(1,2,4-thiadiazol-5-yl)benzenesulfonamide], the IC50 on human Nav1.7 (hNav1.7) [1] is 942 nM; on rat Nav1.2 (rNav1.2) [2], over 10000 nM; against human Nav1.7 (hNav1.7) [3] it was about 21100 nM; against rat Nav1.2 (rNav1.2) [4], over 32000 nM.

With `CN(C)C(=O)c1cc(Oc2cc(F)c(S(=O)(=O)Nc3ncns3)cc2F)cc(C(F)(F)F)c1` [Compound 38, 3-{2,5-difluoro-4-[(1,2,4-thiadiazol-5-yl)sulfamoyl]phenoxy}-N,N-dimethyl-5-(trifluoromethyl)benzamide], the IC50 is 1600 nM on human Nav1.7 (hNav1.7) [1], about 17100 nM on human Nav1.7 (hNav1.7) [3] and over 32000 nM against human Nav1.5 (hNav1.5).

On to `NC1(C(=O)NCc2cc(-c3cc(C(F)(F)F)cc(C(F)(F)F)c3)cc(C(F)(F)F)c2)CCCC1` [Compound 53, 1-amino-N-((3′,5,5′-tris(trifluoromethyl)-[1,1′-biphenyl]-3-yl)methyl)cyclopentane-1-carboxamide], for which the half-inhibitory concentration (IC50) worked out at 225 nM against human Nav1.7 (hNav1.7) [1], 120 nM on rat Nav1.2 (rNav1.2) [2], 1880 nM against human Nav1.7 (hNav1.7) [3] and 1090 nM at rat Nav1.2 (rNav1.2) [4].

Regarding `O=C(NCc1cc(-c2cc(C(F)(F)F)cc(C(F)(F)F)c2)cc(C(F)(F)F)c1)[C@H]1CCCN1` [Compound 55, (R)-N-((3′,5,5′-tris(trifluoromethyl)-[1,1′-biphenyl]-3-yl)methyl)pyrrolidine-2-carboxamide], the half-maximal inhibitory concentration (IC50) on human Nav1.7 (hNav1.7) [1] turned out to be 162 nM; against rat Nav1.2 (rNav1.2) [2] it was 156 nM; against human Nav1.7 (hNav1.7) [3], 3610 nM; against rat Nav1.2 (rNav1.2) [4] it was 2580 nM.

Turning to `CN1CCC[C@H]1C(=O)NCc1cccc(-c2cc(C(F)(F)F)cc(C(F)(F)F)c2)c1` [Compound 57, (2S)-N-({3-[3,5-bis(trifluoromethyl)phenyl]phenyl}methyl)-1-methylpyrrolidine-2-carboxamide], the IC50 against human Nav1.7 (hNav1.7) [1] was 160 nM; against rat Nav1.2 (rNav1.2) [2], 176 nM; at human Nav1.7 (hNav1.7) [3] it was 5620 nM; at rat Nav1.2 (rNav1.2) [4], 12300 nM.

With `CN(Cc1cccc(-c2cc(C(F)(F)F)cc(C(F)(F)F)c2)c1)C(=O)[C@@H]1CCCN1` [Compound 58, (2S)-N-({3-[3,5-bis(trifluoromethyl)phenyl]phenyl}methyl)-N-methylpyrrolidine-2-carboxamide], the IC50 against human Nav1.7 (hNav1.7) [1] is 777 nM; at rat Nav1.2 (rNav1.2) [2], 733 nM; at human Nav1.7 (hNav1.7) [3] it was 2470 nM; on rat Nav1.2 (rNav1.2) [4] it was 2750 nM.

On to `O=C(NCc1cccc(-c2cc(C(F)(F)F)cc(C(F)(F)F)c2)c1)[C@@H]1CCCN1S(=O)(=O)Nc1ccccc1` [Compound 59, (2S)-N-({3-[3,5-bis(trifluoromethyl)phenyl]phenyl}methyl)-1-(phenylsulfamoyl)pyrrolidine-2-carboxamide], for which the half-maximal inhibitory concentration (IC50) is 153 nM at human Nav1.7 (hNav1.7) [1], 166 nM against rat Nav1.2 (rNav1.2) [2], 8690 nM against human Nav1.7 (hNav1.7) [3] and 8730 nM against rat Nav1.2 (rNav1.2) [4].

As usually defined, the IC50 is the point on the concentration scale where inhibition reaches its midpoint. Lower therefore signals inhibition by little substance.
